Consider two molecules from ChEMBL document CHEMBL1687856, “Oroidin inhibits the activity of the multidrug resistance target Pdr5p from yeast plasma membranes” (J Nat Prod, 2011).

The test system of assay [1] is Saccharomyces cerevisiae. The assay is described as follows: Inhibition of Pdrp5-mediated rhodamine 6G accumulation in Saccharomyces cerevisiae AD124567 at 20 uM after 2 hrs by fluorescence microscopic analysis.
Assay [2] deals with Saccharomyces cerevisiae. As to the kind of experiment: Antimicrobial activity against Pdrp5 overexpressing Saccharomyces cerevisiae AD124567 assessed as growth yield reduction at 200 uM after 48 hrs by chemosensitization assay. As to conditions: AD124567, 48 h, read-out: GI. Format: functional.
Assay [3] is described as follows: Inhibition of Pdr5p-dependent ATPase activity in Saccharomyces cerevisiae AD124567 assessed as release of inorganic phosphate after 60 mins […].
The subject of assay [4] is Saccharomyces cerevisiae. As to the kind of experiment: Inhibition of Prdp5 in Saccharomyces cerevisiae AD124567 assessed as inhibition of glucose-dependent rhodamine 6G efflux after 13 mins by spectrofluorimetry in presence of 2-deoxyglucose treated for 30 mins before compound addition.
Assay [5] in a line: Inhibition of Pdr5p-dependent UTPase activity in Saccharomyces cerevisiae AD124567 assessed as release of inorganic phosphate after 60 mins […].
Assay [6] deals with Saccharomyces cerevisiae. The assay is described as follows: Inhibition of Prdp5 in Saccharomyces cerevisiae AD124567 assessed as inhibition of glucose-dependent rhodamine 6G efflux after 13 mins at 200 uM by spectrofluorimetry in presence of 2-deoxyglucose treated for 30 mins before compound addition.
Assay [7] concerns Saccharomyces cerevisiae. The assay is described as follows: Antimicrobial activity against Saccharomyces cerevisiae AD124567 assessed as growth yield reduction at 200 uM after 48 hrs by chemosensitization assay. The settings on record: AD124567, 48 h, read-out: GI.
Assay [8] concerns Saccharomyces cerevisiae. The assay is described as follows: Inhibition of Prdp5 in Saccharomyces cerevisiae AD124567 assessed as inhibition of glucose-dependent rhodamine 6G efflux after 2 hrs at 100 uM by fluorescence microscopy.

SMILES strings stand for the structures. Active and inactive are the calls of the source. No cut-off for these calls is given here.

For the molecule `C=CC[C@@H]1/C=C(\C)C[C@H](C)C[C@H](OC)[C@H]2O[C@@](O)(C(=O)C(=O)N3CCCC[C@H]3C(=O)O[C@H](/C(C)=C/[C@@H]3CC[C@@H](O)[C@H](OC)C3)[C@H](C)[C@@H](O)CC1=O)[C@H](C)C[C@@H]2OC`, in assay [1], the inhibition entry was “Active”.

`Nc1ncc(/C=C/CNC(=O)c2cc(Br)c(Br)[nH]2)[nH]1` [OROIDIN]: the inhibition of growth at 200 µM in assay [2] and in assay [7] was 30% in each case. The IC50 came out at 20 µM in assay [3] and 13 µM in assay [5]. The inhibition entry in assay [4] is “Dose-dependent effect”; in assay [6], 60%. Further, the inhibition result in assay [8] is “Active”.

Usually inhibition stands for how much of the control response was suppressed. As a reminder, the IC50 is the concentration that inhibits the measured activity by half.
